In one assay the target is T1, Btk (human, full length) (Homo sapiens, UniProt Q06187).
T1 construct: Btk (human, full length) was purchased (Invitrogen, catalog number PV3363); purchased Invitrogen PV3363
As to the kind of experiment: Btk in vitro kinase activity assay (32P-ATP, poly[Glu:Tyr]). It is filed as biochemical. The note with it: 30 min pre-incubation with inhibitor, 5 nM Btk. The method, then: General Procedure for Btk In Vitro Kinase Activity Assay.
Btk (human, full length) was purchased (Invitrogen, catalog number PV3363) and used following a procedure modified from the product literature. […] Subsequently, Btk (5 nM final concentration) in kinase assay buffer supplemented with BSA (0.1 mg/mL) was pre-incubated with inhibitors (six or ten concentrations, in duplicate, 5% DMSO final concentration) for 30 minutes at room temperature. Kinase reactions were initiated by the addition of 0.16 μCi/μL of γ-^32P-ATP (6000 Ci/mmol, NEN) and 0.2 mg/mL substrate (poly[Glu:Tyr], 4:1 Glu:Tyr) and incubated for 30 minutes at room temperature. Kinase activity was determined by spotting 5 μL of each reaction onto sheets of phosphocellulose. Each blot was washed once with 10% AcOH solution, twice with 0.1% H3PO4 solution, and once with MeOH (5-10 minutes per wash). Dried blots were exposed for 30 minutes to a storage phosphor screen and scanned by a Typhoon imager (GE Life Sciences). The data were quantified using ImageQuant (v. 5.2, Molecular Dynamics) and plotted using GraphPad Prism 4.0 software.

The target in a further assay is BTK (Homo sapiens, UniProt Q06187). As to the kind of experiment: Reversibility of binding: compound in solution before and after perturbation of the target (HPLC-MS/MS). On the procedure: The following approach was developed to differentiate compounds that form irreversible bonds with their targets, such as acrylamide compounds, from compound that bind reversibly. […] The reactions were then treated with perturbations including both denaturation with 5 M guanidine hydrochloride and digestion with trypsin, disrupting proper folding of the target. […] The concentration of compound in solution was assessed both preceding and following perturbation using high performance liquid chromatography (HPLC) coupled to tandem mass spectrometry.

pIC50: −log10 of the molar value. A value given as a limit tells only on which side of the number the result lay.

T1 sequence (Q06187 whole entry): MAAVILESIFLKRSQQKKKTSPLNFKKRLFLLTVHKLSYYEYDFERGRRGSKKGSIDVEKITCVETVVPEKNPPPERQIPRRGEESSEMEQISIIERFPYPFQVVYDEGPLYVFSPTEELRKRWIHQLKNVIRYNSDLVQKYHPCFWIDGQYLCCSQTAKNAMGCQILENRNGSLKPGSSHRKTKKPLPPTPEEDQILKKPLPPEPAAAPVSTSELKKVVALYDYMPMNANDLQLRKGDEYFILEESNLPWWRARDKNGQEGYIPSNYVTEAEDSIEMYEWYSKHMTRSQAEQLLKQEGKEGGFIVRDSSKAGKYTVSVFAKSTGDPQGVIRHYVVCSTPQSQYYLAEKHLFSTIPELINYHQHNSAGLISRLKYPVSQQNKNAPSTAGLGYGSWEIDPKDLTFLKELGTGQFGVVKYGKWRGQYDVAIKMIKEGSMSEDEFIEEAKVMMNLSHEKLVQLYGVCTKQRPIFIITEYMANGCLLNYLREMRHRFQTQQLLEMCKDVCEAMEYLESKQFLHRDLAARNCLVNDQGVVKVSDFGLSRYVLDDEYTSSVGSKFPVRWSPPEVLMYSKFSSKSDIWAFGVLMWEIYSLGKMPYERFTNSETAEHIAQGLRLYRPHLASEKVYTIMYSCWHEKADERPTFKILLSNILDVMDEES
BTK, sequence (Q06187 whole entry): as above

In turn, `N#C/C(=C\c1ccccc1)C(=O)N1CCCC(n2nc(-c3ccc(Oc4ccccc4)cc3)c3c(N)ncnc32)C1` (centres unmarked) showed a pIC50 against Btk (human, full length) greater than 7.00. On the same count and under the same terms, the figure for `N#C/C(=C\c1ccccc1Cl)C(=O)N1CCCC(n2nc(-c3ccc(Oc4ccccc4)cc3)c3c(N)ncnc32)C1` (centres unmarked) is greater than 7.00; for `N#C/C(=C\C1CC1)C(=O)N1CC[C@@H](n2nc(-c3ccc(Cl)cc3)c3c(N)ncnc32)C1` it is greater than 7.00; for `N#C/C(=C\C1CC1)C(=O)N1CCCC(n2nc(-c3ccc(Cl)cc3)c3c(N)ncnc32)C1` (centres unmarked) it is greater than 7.00. The same measure, in the same setting: the figure for `N#C/C(=C\C1CC1)C(=O)N1CC[C@@H](n2nc(-c3ccc(Oc4ccccc4)cc3)c3c(N)ncnc32)C1` is greater than 6.00; for `N#C/C(=C\C1CC1)C(=O)N1CC[C@H](n2nc(-c3ccc(Oc4ccccc4)cc3)c3c(N)ncnc32)C1` it is greater than 6.00. The same measure, in the same setting: the figure for `CN(C)C(C)(C)/C=C(\C#N)C(=O)N1CCC[C@@H](n2nc(-c3ccc(Oc4ccccc4)cc3)c3c(N)ncnc32)C1` is greater than 7.00.

On to `CC(C)(/C=C(\C#N)C(=O)N1CCC[C@@H](n2nc(-c3ccc(Oc4ccccc4)cc3)c3c(N)ncnc32)C1)CO`, for which the pIC50 on Btk (human, full length) was greater than 6.00. At Btk (human, full length), `N#C/C(=C\C1CC1)C(=O)N1CCC(n2nc(-c3ccc(Oc4ccccc4)cc3)c3c(N)ncnc32)CC1` had a negative-log IC50 (pIC50) greater than 6.00. Still for that read-out and setting: the figure for `N#C/C(=C\C1CC1)C(=O)N1CCC(Cn2nc(-c3ccc(Oc4ccccc4)cc3)c3c(N)ncnc32)CC1` is greater than 6.00. On the same count and under the same terms, the figure for `N#C/C(=C\C1CC1)C(=O)N[C@H]1CC[C@@H](n2nc(-c3ccc(Oc4ccccc4)cc3)c3c(N)ncnc32)CC1` is greater than 6.00; for `N#C/C(=C\C1CC1)C(=O)N1CCCC(Cn2nc(-c3ccc(Oc4ccccc4)cc3)c3c(N)ncnc32)C1` (centres unmarked) [drawing 184] it is greater than 6.00. Turning to `N#C/C(=C\C1CC1)C(=O)N1CCCC(Cn2nc(-c3ccc(Oc4ccccc4)cc3)c3c(N)ncnc32)C1` (centres unmarked) [drawing 187], on BTK (after 5 M guanidine hydrochloride denaturation and trypsin digestion), the “Compound in solution in the denatured or digested state?” value was “yes”. Moreover, the “Compound in solution in the native state?” value at BTK (protein target in excess over compound, native state) is reported as “no”.

The values above are taken from US9580427B2, “Kinase inhibitors” (The Regents of the University of California, priority 2011, dated 2017).
